This note sets out measurements from ChEMBL document CHEMBL5550127, “1,2,3-Triazole-totarol conjugates as potent PIP5K1α lipid kinase inhibitors” (Bioorg Med Chem, 2024).

Assay [1] addresses Phosphatidylinositol 4-phosphate 5-kinase type-1 alpha (Homo sapiens) (UniProt Q99755). As to the kind of experiment: Inhibition of recombinant human PIP5K1alpha expressed in Escherichia coli BL21 (DE3) using phosphatidylinositol-4-phosphate as substrate at 1 to 10 uM preincubated for 10 mins followed by substrate and ATP addition and further incubated under dark condition with constant shaking for 30 mins by capillary electrophoresis. Conditions: dose 1-10 µM, time 40.0 min.

Assay [2] concerns LNCaP. In words: Antiproliferative activity against human LNCaP cells assessed as inhibition of cell growth by measuring reduction in cell confluence at 5 to 20 uM measured every 2 hrs for 48 hrs by IncuCyte live-cell imaging analysis. The format is functional, cell-based. Conditions: dose 5-20 µM.
The target of a further assay is Casein kinase 2 (Homo sapiens, UniProt P67870+P68400+P19784+Q8NEV1). In words: Inhibition of CK2 (unknown origin) using RRRDDDSDDD-EDANS as substrate measured after 15 mins by capillary electrophoresis. The format is protein assay.
The target of assay [3] is Phosphatidylinositol 4-phosphate 5-kinase type-1 alpha (Homo sapiens) (UniProt Q99755). As to the kind of experiment: Inhibition of recombinant human PIP5K1alpha expressed in Escherichia coli BL21 (DE3) using phosphatidylinositol-4-phosphate as substrate at 10 uM preincubated for 10 mins followed by substrate and ATP addition and further incubated under dark condition with constant shaking for 30 mins by capillary electrophoresis. To be noted: time 40.0 min.

Assay [4] concerns LNCaP. As to the kind of experiment: Antiproliferative activity against human LNCaP cells assessed as inhibition of cell growth by measuring reduction in cell confluence at 20 uM measured every 2 hrs for 48 hrs by IncuCyte live-cell imaging analysis. The format is functional, cell-based.
Assay [5] relates to LNCaP. In words: Antiproliferative activity against human LNCaP cells assessed as inhibition of cell growth by measuring negative AUC values at 20 uM measured after 48 hrs by IncuCyte live-cell imaging analysis. The format is functional, cell-based.
Assay [6] concerns PC-3. In words: Antiproliferative activity against human PC-3 cells assessed as inhibition of cell growth by measuring negative AUC values at 20 uM measured after 48 hrs by IncuCyte live-cell imaging analysis. The format is functional, cell-based.
For assay [7], the system named is DU-145. As to the kind of experiment: Antiproliferative activity against human DU-145 cells assessed as inhibition of cell growth by measuring negative AUC values at 20 uM measured after 48 hrs by IncuCyte live-cell imaging analysis. Format: functional, cell-based.
The subject of assay [8] is LNCaP. In words: Antiproliferative activity against human LNCaP cells assessed as inhibition of cell growth by measuring reduction in cell confluence at 10 to 20 uM measured every 2 hrs for 72 hrs by IncuCyte live-cell imaging analysis. Conditions: dose 10-20 µM. Format: functional, cell-based.
Assay [9] relates to PC-3. In words: Antiproliferative activity against human PC-3 cells assessed as inhibition of cell growth by measuring reduction in cell confluence at 10 to 20 uM measured every 2 hrs for 72 hrs by IncuCyte live-cell imaging analysis. The format is functional, cell-based. To be noted: dose 10-20 µM.
Assay [10] has as its system DU-145. In words: Antiproliferative activity against human DU-145 cells assessed as inhibition of cell growth by measuring reduction in cell confluence at 10 to 20 uM measured every 2 hrs for 72 hrs by IncuCyte live-cell imaging analysis. Conditions: dose 10-20 µM. The format is functional, cell-based.
Assay [11] has as its system LNCaP. As to the kind of experiment: Antiproliferative activity against human LNCaP cells assessed as inhibition of cell growth by measuring reduction in cell confluence at 1 to 5 uM measured every 2 hrs for 72 hrs by IncuCyte live-cell imaging analysis. Format: functional, cell-based. Conditions: dose 1-5 µM.
The subject of assay [12] is DU-145. As to the kind of experiment: Antiproliferative activity against human DU-145 cells assessed as inhibition of cell growth by measuring reduction in cell confluence at 1 to 5 uM measured every 2 hrs for 72 hrs by IncuCyte live-cell imaging analysis. Conditions: dose 1-5 µM. Format: functional, cell-based.
Assay [13] has as its system PC-3. In words: Induction of morphological changes in human PC-3 cells assessed as change in number of cells at 10 uM measured after 0 to 72 hrs by IncuCyte live-cell imaging based phase contrast microscopic analysis. Format: functional. To be noted: time 0-72 hrs.
The test system of assay [14] is PC-3. In words: Induction of morphological changes in human PC-3 cells assessed as change in cell shape at 10 uM measured after 0 to 72 hrs by IncuCyte live-cell imaging based phase contrast microscopic analysis. The format is functional. Conditions: time 0-72 hrs.
In assay [15] the test system is DU-145. As to the kind of experiment: Induction of morphological changes in human DU-145 cells assessed as change in number of cells at 10 uM measured after 0 to 72 hrs by IncuCyte live-cell imaging based phase contrast microscopic analysis. The format is functional. Conditions: time 0-72 hrs.
In assay [16] the test system is DU-145. In words: Induction of morphological changes in human DU-145 cells assessed as change in cell shape at 10 uM measured after 0 to 72 hrs by IncuCyte live-cell imaging based phase contrast microscopic analysis. Conditions: time 0-72 hrs. The format is functional.
In assay [17] the test system is LNCaP. As to the kind of experiment: Induction of morphological changes in human LNCaP cells assessed as change in number of cells at 10 uM measured after 0 to 72 hrs by IncuCyte live-cell imaging based phase contrast microscopic analysis. Conditions: time 0-72 hrs. The format is functional.
Assay [18] relates to LNCaP. In words: Induction of morphological changes in human LNCaP cells assessed as change in cell shape at 10 uM measured after 0 to 72 hrs by IncuCyte live-cell imaging based phase contrast microscopic analysis. Conditions: time 0-72 hrs. The format is functional.
The subject of assay [19] is LNCaP. As to the kind of experiment: cells. Conditions: Homo sapiens, 72 h.
Description: Antiproliferative activity against human LNCaP cells assessed as inhibition of cell growth measured after 72 hrs by IncuCyte live-cell imaging analysis
In assay [20] the test system is PC-3. In words: cells. Conditions: Homo sapiens, PC-3, 72 h.
Description: Antiproliferative activity against human PC-3 cells assessed as inhibition of cell growth measured after 72 hrs by IncuCyte live-cell imaging analysis
Assay [21] concerns DU-145. In words: cells. To be noted: Homo sapiens, DU-145, 72 h.
Description: Antiproliferative activity against human DU-145 cells assessed as inhibition of cell growth measured after 72 hrs by IncuCyte live-cell imaging analysis

The structures appear in SMILES notation. Active and inactive are the calls of the source. The calls are words filed in the database; no cut-off is given here.

Phosphatidylinositol 4-phosphate 5-kinase type-1 alpha (Homo sapiens), sequence (Q99755 whole entry): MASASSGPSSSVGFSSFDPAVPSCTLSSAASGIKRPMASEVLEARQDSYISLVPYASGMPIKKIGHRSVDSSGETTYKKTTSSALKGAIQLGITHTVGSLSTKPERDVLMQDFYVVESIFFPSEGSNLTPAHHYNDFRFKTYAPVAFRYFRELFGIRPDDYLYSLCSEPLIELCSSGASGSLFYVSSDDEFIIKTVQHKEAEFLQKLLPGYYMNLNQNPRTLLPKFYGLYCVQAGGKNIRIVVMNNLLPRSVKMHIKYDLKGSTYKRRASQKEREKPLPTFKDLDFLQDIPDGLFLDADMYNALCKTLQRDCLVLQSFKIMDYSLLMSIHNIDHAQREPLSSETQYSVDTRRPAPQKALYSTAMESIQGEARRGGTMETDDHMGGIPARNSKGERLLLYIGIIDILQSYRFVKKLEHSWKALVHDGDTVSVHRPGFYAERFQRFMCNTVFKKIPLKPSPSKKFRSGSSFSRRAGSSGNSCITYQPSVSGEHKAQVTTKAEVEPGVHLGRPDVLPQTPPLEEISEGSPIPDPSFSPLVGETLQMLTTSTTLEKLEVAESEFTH

Turning to `CCCCCCCCCCCn1cc(COc2ccc3c(c2C(C)C)CC[C@H]2C(C)(C)CCC[C@]32C)nn1`, in assay [1], the inhibition entry was “inactive”.
For `CN(C)CCN1C(=O)c2cccc3c(-n4cc(CO)nn4)ccc(c23)C1=O`, in the assay with LNCaP [2], the result was Active.
Take `CC(C)c1c(OCc2cn(-c3cccc([N+](=O)[O-])c3)nn2)ccc2c1CC[C@H]1C(C)(C)CCC[C@]21C`: at Casein kinase 2, the IC50 (as a rule, the midpoint of a concentration-inhibition curve) is 0.91 µM.
On to `CC(C)c1c(O)ccc2c1CC[C@H]1C(C)(C)CCC[C@]21C`, for which, in assay [3], the inhibition result is “inactive”. Besides, the outcome in the assay on LNCaP [4] was inactive.
`COc1ccc(-n2cc(COc3ccc4c(c3C(C)C)CC[C@H]3C(C)(C)CCC[C@]43C)nn2)cc1` showed an IC50 at Casein kinase 2 of 4.1 µM.
On to `CC(C)c1c(OCc2cn(C3=CCC4C(=O)N(CCN(C)C)C(=O)c5cccc3c54)nn2)ccc2c1CC[C@H]1C(C)(C)CCC[C@]21C` (stereo partly drawn), for which the result in the assay on LNCaP [5], in the assay with PC-3 [6], with DU-145 [7], with LNCaP [8], in the assay on PC-3 [9] and with DU-145 [10] was Active. For the same compound, the outcome in the assay with PC-3 [13], in the assay on PC-3 [14], with DU-145 [15], in the assay on DU-145 [16], with LNCaP [17] and in the assay on LNCaP [18] was Active. Also, the result with LNCaP [11] and in the assay with DU-145 [12] was inactive. Besides, the results for the EC50 in the assay on LNCaP [19], in the assay on PC-3 [20] and with DU-145 [21] were 15.7 µM, 4.89 µM and 8.57 µM, respectively.
